Here are results for eight compounds from PubChem BioAssay (NCI).

Some test systems named below: 786-0 renal; HCC-2998 colon; HS 578T breast; K-562 leukemia; MCF7 breast; MDA-MB-231 breast; NCI-H23 lung; OVCAR-5 ovarian; SN12C renal; UACC-62 melanoma.
Holding throughout (experiment): NCI-60 cell line screen, 48 h

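96-well plates; 48 h exposure; 5 concentrations. Endpoints by linear interpolation between flanking doses. Not reached: highest tested concentration assigned. GI50 = concentration required for 50% inhibition of growth. Definition used: TGI = concentration required for complete inhibition of growth.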

Consider `Cc1cc(O)c(C2=NN(c3ccc(S(N)(=O)=O)cc3)C(c3ccc(Cl)cc3)C2)c(C)c1Cl` (stereo not given), for which the GI50 in the assay with 786-0 renal is 4.97 µM; with HCC-2998 colon it was 6.48 µM; with HS 578T breast, 3.45 µM; in the assay on K-562 leukemia it was 2.24 µM; with MCF7 breast it was 2.01 µM; in the assay on MDA-MB-231 breast, 2.34 µM. Further, the GI50 was 5.82 µM in the assay with NCI-H23 lung, 12.3 µM with OVCAR-5 ovarian, 5.71 µM in the assay on SN12C renal and 3.49 µM in the assay with UACC-62 melanoma. Further, the TGI was determined as 17.4 µM with 786-0 renal; 19.1 µM in the assay on HCC-2998 colon; 20 µM in the assay with HS 578T breast; 11.5 µM with K-562 leukemia; 10.5 µM in the assay with MCF7 breast; 11.8 µM with MDA-MB-231 breast. Further, the TGI was 19.9 µM in the assay with NCI-H23 lung, 24.7 µM in the assay with OVCAR-5 ovarian, 19.2 µM in the assay with SN12C renal and 15.1 µM in the assay with UACC-62 melanoma.
For `Cn1cc(C2=C(c3cn(C)c4ccc(Cl)cc34)C(=O)NC2=O)c2ccccc21`, the GI50 in the assay with 786-0 renal is 4.03 µM; in the assay on HCC-2998 colon, 6.76 µM; in the assay on HS 578T breast, 2.11 µM; in the assay with K-562 leukemia it was 1.35 µM; in the assay on MCF7 breast, 1.25 µM; in the assay on MDA-MB-231 breast, 6.69 µM. The GI50 was 4.64 µM in the assay on NCI-H23 lung, 9.3 µM in the assay on OVCAR-5 ovarian, 3.87 µM in the assay on SN12C renal and 2.42 µM with UACC-62 melanoma. The TGI in the assay with 786-0 renal was 16.9 µM; in the assay with HCC-2998 colon it was greater than 23.9 µM; in the assay on HS 578T breast it was greater than 23.9 µM; in the assay with K-562 leukemia, greater than 25 µM; with MCF7 breast, greater than 25 µM; in the assay on MDA-MB-231 breast it was greater than 25 µM. For the same compound, the TGI in the assay on NCI-H23 lung was 14.6 µM; in the assay with OVCAR-5 ovarian it was greater than 21.9 µM; with SN12C renal it was 15.7 µM; in the assay with UACC-62 melanoma, 8.36 µM.
For `Cc1c2cc(Cl)c3ccccc3c2c[n+]2ccccc12`, the GI50 in the assay on 786-0 renal was 4.11 µM; in the assay with HCC-2998 colon, 4.22 µM; in the assay with HS 578T breast, 1.12 µM; in the assay on K-562 leukemia, 2.98 µM; in the assay on MCF7 breast, 2.28 µM; with MDA-MB-231 breast, 11.9 µM. Also, the GI50 with NCI-H23 lung was 2.74 µM; with OVCAR-5 ovarian, 29.7 µM; with SN12C renal, 0.388 µM; in the assay on UACC-62 melanoma it was 2.61 µM. The TGI in the assay with 786-0 renal was 33 µM; in the assay with HCC-2998 colon, 17.8 µM; with HS 578T breast, 11.9 µM; with K-562 leukemia, 27.2 µM; with MCF7 breast, 15 µM; with MDA-MB-231 breast, 39.8 µM. Besides, the TGI in the assay on NCI-H23 lung is 23.5 µM; in the assay on OVCAR-5 ovarian, greater than 100 µM; in the assay with SN12C renal it was 3.52 µM; in the assay on UACC-62 melanoma, 13.3 µM.
As to `COC(=O)COc1ccc(/C=C2/N=C(c3ccccc3)N(c3c(C)n(C)n(-c4ccccc4)c3=O)C2=O)cc1`, the GI50 is 19.7 µM with 786-0 renal; 16.9 µM with HCC-2998 colon; 24.7 µM in the assay with HS 578T breast; 30.4 µM with K-562 leukemia; 14.1 µM in the assay on MCF7 breast; 21.8 µM with MDA-MB-231 breast. In addition, the GI50 was 57.5 µM in the assay on NCI-H23 lung, 62.4 µM in the assay with OVCAR-5 ovarian, 22.5 µM with SN12C renal and 17.6 µM with UACC-62 melanoma. In addition, the TGI in the assay on 786-0 renal was 37 µM; with HCC-2998 colon it was 33.4 µM; in the assay on HS 578T breast, 60.5 µM; in the assay on K-562 leukemia, greater than 100 µM; in the assay with MCF7 breast, 32.9 µM; in the assay with MDA-MB-231 breast, 45.1 µM. Moreover, the TGI was greater than 100 µM in the assay on NCI-H23 lung, greater than 100 µM with OVCAR-5 ovarian, 49 µM in the assay on SN12C renal and 32.1 µM in the assay on UACC-62 melanoma.
For the compound `O=C1CC(c2[nH]nc3ccccc23)C(=O)N1c1ccccc1` (stereo not given), the TGI in the assay on 786-0 renal was greater than 100 µM; in the assay on HCC-2998 colon, greater than 100 µM; in the assay on HS 578T breast, greater than 100 µM; with K-562 leukemia it was greater than 80.1 µM; in the assay on MCF7 breast, greater than 100 µM; with MDA-MB-231 breast, greater than 100 µM. For the same compound, the TGI with NCI-H23 lung, with OVCAR-5 ovarian, in the assay on SN12C renal and in the assay on UACC-62 melanoma was greater than 100 µM each time.
Regarding `COc1cc2c(cc1OC)C(=O)/C(=C/c1cc(-c3ccc4c(c3)OCO4)n[nH]1)C2`, the GI50 in the assay with 786-0 renal is 1.61 µM; in the assay with HCC-2998 colon, 1.88 µM; in the assay on HS 578T breast, 2.61 µM; in the assay on K-562 leukemia, 1.59 µM; in the assay on MCF7 breast, 0.339 µM; in the assay on MDA-MB-231 breast it was 1.66 µM. Besides, the GI50 in the assay with NCI-H23 lung was 1.87 µM; with OVCAR-5 ovarian, 1.56 µM; in the assay on SN12C renal, 1.59 µM; with UACC-62 melanoma it was 1.63 µM. Moreover, the TGI in the assay on 786-0 renal was 2.99 µM; in the assay with HCC-2998 colon, 3.44 µM; in the assay with HS 578T breast, 8.08 µM; in the assay with K-562 leukemia, greater than 100 µM; in the assay with MCF7 breast, 1.42 µM; in the assay on MDA-MB-231 breast, 3.2 µM. Further, the TGI is 3.91 µM with NCI-H23 lung, 3 µM in the assay on OVCAR-5 ovarian, 2.99 µM in the assay with SN12C renal and 3.04 µM in the assay with UACC-62 melanoma.
For `O=c1cc(N/N=C/c2ccc(F)cc2)c2cc(Cl)ccc2[nH]1`, the GI50 in the assay on 786-0 renal was 26.3 µM; in the assay with HCC-2998 colon, 32.4 µM; with HS 578T breast, 25.3 µM; in the assay on K-562 leukemia, 13.2 µM; in the assay on MCF7 breast, 15.3 µM; in the assay with MDA-MB-231 breast, 16 µM. Also, the GI50 with NCI-H23 lung is 19.5 µM; with OVCAR-5 ovarian, 21.6 µM; with SN12C renal, 23.8 µM; with UACC-62 melanoma it was 16.7 µM. In addition, the TGI was greater than 100 µM in the assay with 786-0 renal; greater than 100 µM with HCC-2998 colon; greater than 100 µM in the assay with HS 578T breast; 93.2 µM with K-562 leukemia; greater than 100 µM in the assay on MCF7 breast; 51.7 µM in the assay with MDA-MB-231 breast. Further, the TGI with NCI-H23 lung was 76.1 µM; with OVCAR-5 ovarian, 58.9 µM; in the assay on SN12C renal, greater than 100 µM; in the assay on UACC-62 melanoma it was greater than 100 µM.
Turning to `CC(C)Cc1ccc(C(C)CC2=CCC(CN(C)C)C2=O)cc1` (stereo not given), the TGI in the assay on 786-0 renal is 3.34 µM; in the assay on HCC-2998 colon, 17 µM; with HS 578T breast, 40.6 µM; with K-562 leukemia, 4.04 µM; with MCF7 breast it was 2.78 µM; with MDA-MB-231 breast it was 22.5 µM. In addition, the TGI was 28.2 µM in the assay on NCI-H23 lung, 29.9 µM with OVCAR-5 ovarian, 20 µM in the assay on SN12C renal and 23 µM in the assay on UACC-62 melanoma.
